Test results taken from publication PMC7470111, “Escherichia coli γ-carbonic anhydrase: characterisation and effects of simple aromatic/heterocyclic sulphonamide inhibitors” (Journal of Enzyme Inhibition and Medicinal Chemistry, 2020).

Target: T1, EcoCAγ (Escherichia coli, UniProt P0A9W9)
T1 construct: gene yrdA; recombinant full-length WP_009008373.1, N-terminal His-tag, 72 extra N-terminal residues versus YrdA
T1 sequence (P0A9W9 1-184): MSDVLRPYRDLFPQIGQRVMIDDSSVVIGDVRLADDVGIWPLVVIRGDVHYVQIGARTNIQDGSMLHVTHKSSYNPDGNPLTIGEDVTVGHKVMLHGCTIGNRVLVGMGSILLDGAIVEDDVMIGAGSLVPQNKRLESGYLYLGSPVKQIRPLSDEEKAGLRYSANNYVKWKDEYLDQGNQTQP
Assay: biochemical
Conditions: not given
Description: The CO2 hydration activity performed by the EcoCAγ was monitored using an Applied Photophysics stopped-flow instrument. […] To determine the kinetic parameters by Lineweaver-Burk plots and the inhibition constants, a concentration of CO2 between 1.7 to 17 mM was used. At least six measurements of the original 5–10% reaction were used to assess the initial velocity for each inhibitor. The uncatalyzed rates were identically determined and detracted from the total observed rates. Stock inhibitor solutions (10–100 mM) were prepared in distilled-deionized water and dilutions up to 0.01 mM were done with the buffer test. Inhibitor and enzyme solutions were preincubated together for 15 min at room temperature prior to assay, in order to allow for the formation of the E-I complex or for the eventual active site mediated hydrolysis of the inhibitor. The inhibition constants were obtained by non-linear least-squares methods using PRISM 6 and the Cheng-Prusoff equation, as reported earlier[12]^,[14]^,[68], and represent the mean from at least three different determinations. h CAI and hCA II were recombinant enzymes obtained in-house. The synthetic E. coli gene encoding for the EcoCAγ (Accession number: WP_009008373.1) was synthesised by the Invitrogen GeneArt (ThermoFisher Scientific), a company specialised in gene synthesis, and cloned into the expression vector pET100D-Topo/γ-CA. Briefly, the gene was designed to produce the recombinant EcoCAγ as fusion proteins with a tag containing nucleotides encoding for six histidines (His-Tag) at the amino terminus of neosynthetized recombinant protein. Competent E. coli BL21 (DE3) codon plus cells (Agilent) were transformed as described by Del Prete et al.. Isopropyl β-D-1-thiogalactopyranoside (IPTG) at the concentration of 1 mM was added to the cellular culture to overexpress the recombinant EcoCAγ. After growth, the cells were harvested and disrupted by sonication. Cellular extract was purified using a nickel affinity column (His-Trap FF), which allows the interaction between the matrix functionalised with Ni^2+ ions and the His-Tag at the N-terminus of the protein. The HisTrap column (1 ml) was equilibrated with 20 ml equilibration buffer (50 mM Tris, 20 mM imidazole and 150 mM sodium chloride, pH 7.5) at 1 ml/min. The supernatant from the cellular lysate was loaded onto the column at 1 ml/min, and eluted from the column by fluxing imidazole (300 mM) at a flow of 0.5 ml/min in a buffer composed of 50 mM Tris and 300 mM sodium chloride, pH 7.5. The recovered EcoCAγ was 90% pure. The protein quantification was carried out by Bradford method (BioRAD).

In order of falling Ki:
1. Nc1ccc(S(=O)(=O)NCCc2ccc(S(N)(=O)=O)cc2)cc1 [compound 24]  4.26 µM
2. NS(=O)(=O)c1ccc(CO)cc1 [compound 16]  4.24 µM
3. Nc1ccc(S(=O)(=O)NCc2ccc(S(N)(=O)=O)cc2)cc1 [compound 23]  4.04 µM
4. Nc1ccc(S(=O)(=O)Nc2ccc(S(N)(=O)=O)cc2)cc1 [compound 22]  3.5 µM
5. NS(=O)(=O)c1cc(Cl)cc(Cl)c1O [compound 10]  2.58 µM
6. NS(=O)(=O)c1ccc(C(=O)O)cc1 [compound 18]  2.06 µM
7. NS(=O)(=O)c1ccc(CCO)cc1 [compound 17]  1.97 µM
8. Nc1cc(Cl)c(S(N)(=O)=O)cc1S(N)(=O)=O [compound 12]  1.95 µM
9. Nc1nccc(Nc2ccc(S(N)(=O)=O)cc2)n1 [compound 19]  1.89 µM
10. Nc1cc(C(F)(F)F)c(S(N)(=O)=O)cc1S(N)(=O)=O [compound 11]  1.78 µM
11. NS(=O)(=O)c1ccc(O)cc1 [compound 15]  1.01 µM
12. Nc1ccc(S(=O)(=O)Nc2nnc(S(N)(=O)=O)s2)cc1 [compound 20]  0.883 µM
13. Nc1ccc(S(N)(=O)=O)cc1Br [compound 9]  0.718 µM
14. Cn1nc(S(N)(=O)=O)sc1=N [compound 14]  0.712 µM
15. Nc1ccc(S(N)(=O)=O)cc1Cl [compound 8]  0.671 µM
16. NCCc1ccc(S(N)(=O)=O)cc1 [compound 6]  0.622 µM
17. Nc1ccc(S(N)(=O)=O)cc1F [compound 7]  0.605 µM
18. NS(=O)(=O)c1cccc(S(N)(=O)=O)c1 [compound 3]  0.246 µM
19. Cc1ccc(S(N)(=O)=O)cc1 [compound 4]  0.221 µM
20. Nc1nnc(S(N)(=O)=O)s1 [compound 13]  0.197 µM

Same assay, conditions: inhibitor

In order of rising Ki:
1. Nc1cccc(S(N)(=O)=O)c1 [compound 1]  0.314 µM
2. NS(=O)(=O)c1ccc(CCNS(=O)(=O)c2ccc([N+](=O)[O-])cc2CO)cc1 [compound 21]  0.819 µM
